“And” between values parts separate entries of the source, which are not always exact repeats. Identical values can stand only once.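 Interpolation was linear, between the two tested concentrations surrounding the appropriate level; five concentrations were tested over 48 hours in 96-well plates. Abbreviation: GI50, concentration required for 50% inhibition of growth. TGI: concentration producing complete growth inhibition.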
Tests used:
Experiment in all cases: NCI-60 cell line screen, 48 h
M14 melanoma = system: M14 melanoma
COLO 205 colon = system: COLO 205 colon
T-47D breast = system: T-47D breast
NCI/ADR-RES ovarian = system: NCI/ADR-RES ovarian
HOP-92 NSCLC = system: HOP-92 NSCLC
SNB-75 CNS = system: SNB-75 CNS
U251 CNS = system: U251 CNS
OVCAR-8 ovarian = system: OVCAR-8 ovarian

SMILES	TGI (M14 melanoma)	TGI (COLO 205 colon)	TGI (T-47D breast)	TGI (NCI/ADR-RES ovarian)	TGI (HOP-92 NSCLC)	TGI (SNB-75 CNS)	TGI (U251 CNS)	TGI (OVCAR-8 ovarian)	GI50 (M14 melanoma)	GI50 (COLO 205 colon)	GI50 (T-47D breast)	GI50 (NCI/ADR-RES ovarian)	GI50 (HOP-92 NSCLC)	GI50 (SNB-75 CNS)	GI50 (U251 CNS)	GI50 (OVCAR-8 ovarian)
CCc1nc(N)nc(N)c1-c1ccc([N+](=O)[O-])c(Cl)c1	> 100 µM	> 100 µM	> 100 µM	> 100 µM	> 100 µM	> 92.5 µM	> 100 µM	> 100 µM	–	–	–	–	–	–	–	–
COc1ccc(S(=O)(=O)NCCNc2nccc(-c3c(-c4ccccc4)nc4sccn34)n2)cc1	> 100 µM	> 100 µM	> 100 µM	> 100 µM	65.7 µM	9.54 µM	> 100 µM	> 100 µM	2770 nM	2.66 µM	3.17 µM	5.18 µM	3.73 µM	1820 nM	5170 nM	3.08 µM
CCCCCCN(CCCCCC)CC(O)c1cccc2ccc(Cl)cc12 (stereo not drawn)	22 µM	14.9 µM	4.46 µM	25.1 µM	19.5 µM	20.6 µM	23.5 µM	32.7 µM	9480 nM	3.82 µM	1.67 µM	11.4 µM	3.21 µM	7430 nM	10500 nM	15.7 µM
CCN(CC)CCOc1ccc(C2=C(c3ccccc3)CCc3cc(OC)ccc32)cc1	3.82 µM	3.04 µM	6.86 µM	12.7 µM	10.9 µM	4.62 µM	7.07 µM	10.5 µM	1880 nM	1.53 µM	0.811 µM	3.17 µM	3.64 µM	1400 nM	2290 nM	3.15 µM
CCCCCCCCCCCCCCCCCC1=NC(C)(C)CN1CCO	3.49 µM	2.93 µM	5.61 µM	11.5 µM	7.84 µM	4.01 µM	3.01 µM	–	1810 nM	1.55 µM	2.24 µM	3.16 µM	1.4 µM	1810 nM	1650 nM	–
C=CC[PH+](c1ccccc1)c1ccccc1.C=CC[PH+](c1ccccc1)c1ccccc1.[Cl][Pt][Cl]	22.3 µM	34.1 µM	24.6 µM	> 100 µM	12.4 µM	25.1 µM	22.3 µM	31.5 µM	6350 nM	5.39 µM	4.59 µM	25.1 µM	3.27 µM	11000 nM	7450 nM	5.25 µM
Cc1cc(N)c2ccccc2[n+]1CCCCCCCCCC[n+]1c(C)cc(N)c2ccccc21	3.25 µM and 18.5 µM and 7.33 µM	–	–	> 38.5 µM and 48.5 µM and 42.9 µM	–	6.77 µM and 6.72 µM and 11 µM	1.05 µM and 1.94 µM and 6.52 µM	1.99 µM and 13.8 µM	584 nM	–	0.0959 µM	5.42 µM and 13.2 µM	0.168 µM	212 nM and 249 nM	145 nM and 1150 nM	0.218 µM
CN1C(=O)C23CC4=CC=CC(O)C4N2C(=O)C1(CO)SS3 (stereo not drawn)	0.295 µM	0.292 µM	0.339 µM	0.0661 µM	0.41 µM	0.382 µM	0.448 µM	0.154 µM	–	–	–	–	–	–	–	–
N#Cc1ccc(N2Cc3cc(Cl)ccc3OC3=C2C(=O)N(Cc2ccccc2)C3=O)cc1	3.68 µM	2.92 µM	2.58 µM	11.4 µM	3.09 µM	2.53 µM	2.98 µM	–	1490 nM	1.21 µM	0.714 µM	2.69 µM	1.45 µM	1240 nM	1560 nM	–
O=c1[nH]c2cc(O)ccc2n2cc3c(F)cccc3c12	> 100 µM	> 100 µM	> 100 µM	> 100 µM	> 100 µM	> 100 µM	> 100 µM	> 100 µM	1380 nM	7.3 µM	> 100 µM	0.698 µM	3.41 µM	1760 nM	2490 nM	3.85 µM
Nc1ncnc2c1ncn2Cc1ccc(C23CC4CC(CC(C4)C2)C3)c(O)c1	–	> 100 µM	> 100 µM	> 100 µM	37.5 µM	40 µM	32.6 µM	> 100 µM	–	29.1 µM	58.7 µM	> 100 µM	16.4 µM	13400 nM	14800 nM	17.5 µM
C=C(C)[C@]12CC(C)C34OC(/C=C\C=C\CCCCCCCCC)(O[C@@H]1[C@@H]3[C@@H]1O[C@]1(CO)[C@@H](O)[C@]1(O)C(=O)C(C)=C[C@@H]41)O2 (stereo partly drawn)	27.4 µM	14.1 µM	26.5 µM	45.2 µM	22.4 µM	22 µM	49.9 µM	31.8 µM	–	–	–	–	–	–	–	–
O=[N+]([O-])c1cccc(-c2ncc(-c3ccc(Cl)cc3Cl)[nH]2)c1	26.9 µM	11.4 µM	28.5 µM	> 83.3 µM	35.4 µM	36.9 µM	6.96 µM	53.3 µM	8350 nM	3.45 µM	6.88 µM	11.6 µM	–	8000 nM	2670 nM	22.4 µM
O=C(CC(C(=O)O)N1CCOCC1)c1ccccc1 (stereo not drawn)	30.8 µM	39.7 µM	> 100 µM	> 100 µM	38 µM	83.4 µM	30.9 µM	94.8 µM	–	–	–	–	–	–	–	–
CN1CCN(C(=S)SCN2C(=O)c3ccccc3S2(=O)=O)CC1	22.8 µM	21.3 µM	> 100 µM	> 100 µM	–	92.1 µM	> 100 µM	> 100 µM	7930 nM	3.48 µM	11 µM	34 µM	–	24500 nM	26500 nM	46.3 µM
CC(C)n1nc(C#Cc2cccc(NC(=O)c3cccc(C(F)(F)F)c3)c2)c2c(N)ncnc21	2.03 µM	5.73 µM	17.5 µM	> 100 µM	–	3.89 µM	69.4 µM	> 100 µM	309 nM	0.524 µM	3.22 µM	2.83 µM	–	1750 nM	3050 nM	3.15 µM
O=C(Nc1ccccc1)Nc1ccccc1CNc1nc(Nc2ccc(OCCN3CCCC3)cc2)ncc1Cl	9.79 µM	–	20.8 µM	28.2 µM	10.6 µM	6.22 µM	13.7 µM	> 50 µM	2510 nM	–	2.75 µM	8.79 µM	2.82 µM	1200 nM	1930 nM	7.62 µM

Source: PubChem BioAssay (NCI)
